From patent US20090099136A1 (PHARMASSET, INC., priority 2007, published 2009) come the findings set out here.

Values joined by “and” are separate entries in the source; they are usually repeats but may differ in a detail not shown here. Equal entries are not always repeated.

For one data set, the system named is NL43 wild type virus. The format is cell-based, HIV. The conditions noted are these: read-out: EC50 (P4) (WT).

As to `CCCCCOC(=O)C(C)NP(=O)(OCC1OCC(n2cc(C)c(=O)[nH]c2=O)O1)Oc1ccccc1` (mixture of isomers) [Example 17], in the data set on NL43 wild type virus, the EC50 (as a rule, the concentration that produces a half-maximal response) was 0.36 µM. In the data set on P4 CCR5-luc cells, the “Toxicity (Luciferase, 6d)” value is recorded as above 100.

In the case of `CCCCCCOC(=O)C(C)NP(=O)(OCC1OCC(n2cc(C)c(=O)[nH]c2=O)O1)Oc1ccccc1` (mixture of isomers) [Example 18], the half-maximal effective concentration (EC50) in the data set with NL43 wild type virus was 0.74 µM and 0.41 µM.

Turning to `Cc1cn(C2COC(COP(=O)(NC(C)C(=O)OCc3ccc(F)cc3)Oc3ccccc3)O2)c(=O)[nH]c1=O` (mixture of isomers) [Example 19], the “Toxicity (Luciferase, 6d)” value with P4 CCR5-luc cells is given as above 100.

With `CCOC(=O)C(C)NP(=O)(OCC1OCC(n2cc(C)c(=O)[nH]c2=O)O1)Oc1ccc(Cl)cc1` (mixture of isomers) [Example 20], the 50% effective concentration (EC50) with NL43 wild type virus came out at 0.27 µM. Moreover, the “Toxicity (Luciferase, 6d)” value in the data set with P4 CCR5-luc cells was above 100.

For `Cc1cn(C2COC(COP(=O)(NC(C)C(=O)OCc3ccccc3)Oc3ccccc3Cl)O2)c(=O)[nH]c1=O` (mixture of isomers) [Example 25], in the data set on NL43 wild type virus, the EC50 came out at 0.26 µM. The “Toxicity (Luciferase, 6d)” value with P4 CCR5-luc cells is above 100.

Turning to `CCCCOC(=O)C(C)NP(=O)(OCC1OCC(n2cc(C)c(=O)[nH]c2=O)O1)Oc1ccc(Br)cc1` (mixture of isomers) [Example 28], in the data set with NL43 wild type virus, the EC50 was 1.34 µM. Also, the “Toxicity (Luciferase, 6d)” value in the data set with P4 CCR5-luc cells is recorded as above 100.

With `COC(=O)C(CC(C)C)NP(=O)(OCC1OCC(n2cc(C)c(=O)[nH]c2=O)O1)Oc1ccccc1` (mixture of isomers) [Example 52], in the data set with NL43 wild type virus, the EC50 was determined as 0.96 µM. In addition, the “Toxicity (Luciferase, 6d)” value in the data set with P4 CCR5-luc cells is above 100.

In the case of `Cc1cn(C2COC(COP(=O)(NC(C)C(=O)OCc3ccccc3)Oc3ccc(F)cc3)O2)c(=O)[nH]c1=O` (mixture of isomers) [Example 67], the EC50 in the data set on NL43 wild type virus worked out at 1.11 µM. Also, in the data set with P4 CCR5-luc cells, the “Toxicity (Luciferase, 6d)” value was above 100.

`Cc1cn(C2COC(COP(=O)(NC(C)C(=O)OC3CCCCC3)Oc3ccccc3)O2)c(=O)[nH]c1=O` (mixture of isomers) [Example 72]: the 50% effective concentration (EC50) with NL43 wild type virus is 2.12 µM. Besides, the “Toxicity (Luciferase, 6d)” value in the data set on P4 CCR5-luc cells is given as above 100.

As for `Cc1cn(C2COC(COP(=O)(NC(C)C(=O)OC3CCCC3)Oc3ccccc3)O2)c(=O)[nH]c1=O` (mixture of isomers) [Example 73], the EC50 in the data set on NL43 wild type virus was 1.03 µM. In addition, the “Toxicity (Luciferase, 6d)” value with P4 CCR5-luc cells is given as above 100.

As for `Cc1cn(C2COC(COP(=O)(NC(C)C(=O)OC3CCC3)Oc3ccc(F)cc3)O2)c(=O)[nH]c1=O` (mixture of isomers) [Example 86], in the data set with NL43 wild type virus, the concentration giving a half-maximal response (EC50) was found to be 0.5 µM. Moreover, in the data set on P4 CCR5-luc cells, the “Toxicity (Luciferase, 6d)” value is listed as above 100.

Consider `Cc1cn(C2COC(COP(=O)(NC(C)C(=O)OC3CCC3)Oc3ccccc3)O2)c(=O)[nH]c1=O` (mixture of isomers) [Example 95], for which, in the data set on NL43 wild type virus, the EC50 was determined as 0.45 µM. Moreover, the “Toxicity (Luciferase, 6d)” value with P4 CCR5-luc cells was above 100.

Turning to `Cc1cn(C2COC(COP(=O)(NC(C)C(=O)OCC3CC3)Oc3ccccc3)O2)c(=O)[nH]c1=O` (mixture of isomers) [Example 96], the EC50 in the data set with NL43 wild type virus is 0.33 µM. In addition, in the data set on P4 CCR5-luc cells, the “Toxicity (Luciferase, 6d)” value was above 100.

`Cc1cn(C2COC(COP(=O)(NC(C)C(=O)OCC3CCC3)Oc3ccccc3)O2)c(=O)[nH]c1=O` (mixture of isomers) [Example 109]: the EC50 in the data set with NL43 wild type virus was 0.71 µM. In addition, the “Toxicity (Luciferase, 6d)” value in the data set with P4 CCR5-luc cells is above 100.

For `Cc1cn(C2COC(COP(=O)(NC(CC(C)C)C(=O)OCC3CC3)Oc3ccccc3)O2)c(=O)[nH]c1=O` (mixture of isomers) [Example 116], in the data set with NL43 wild type virus, the EC50 was 0.57 µM. Besides, in the data set on P4 CCR5-luc cells, the “Toxicity (Luciferase, 6d)” value is on record as above 100.

Regarding `Cc1cn(C2COC(COP(=O)(NC(C)C(=O)OCc3ccccc3)Oc3ccccc3)O2)c(=O)[nH]c1=O` (mixture of isomers) [Example 119], the EC50 in the data set with NL43 wild type virus was found to be 1.7 µM. The “Toxicity (Luciferase, 6d)” value in the data set on P4 CCR5-luc cells is above 100.
